Measurements reported in PMC8350395, “Hsa-miR-4277 Decelerates the Metabolism or Clearance of Sorafenib in HCC Cells and Enhances the Sensitivity of HCC Cells to Sorafenib by Targeting cyp3a4” (Frontiers in Oncology, 2021).
Like-named read-outs stand apart in the source and are kept apart here.

Assays:
MHCC97-H cells [1] = test: Assessment of cell survival (MTT); type: cell-based; details: Homo sapiens, MHCC97H, 48 h
Protocol: (§1) After transfection or treated with potential inhibitor of cyp3a4, HCC cells were treated with a series concentrations of sorafenib, lenvatinib, cabozantinib, regorafenib, anlotinib, or apatinib (10 μmol/L, 3 μmol/L, 1 μmol/L, 0.3 μmol/L, 0.1 μmol/L, 0.03 μmol/L, or 0.01 μmol/L). After 48 h, MTT was performed to measure ell survival, and the IC50 value of each agent was calculated ([36]–[38]).
The *P < 0.05 being statistically significant between groups.

[2] = system: patients with advanced HCC; type: in vivo, human; details: advanced HCC patients receiving sorafenib
Excerpt: The endogenous mRNA levels of cyp3a4 in HCC clinical specimens were identified using quantitative polymerase chain reaction (qPCR) in accordance with methods described by Wang et al. ([20]) and Ma et al. ([20], [25]). […] The results (the relative expression level [folds of β-Actin]) of PXR or CAR was shown as heat-map.

BEL-7402 = test: Assessment of cell survival (MTT); type: cell-based; details: Homo sapiens, Bel-7402, 48 h
Protocol: as §1
(§2) SPSS 9.0 statistical software (IBM Corporation, Armonk, NY, USA) was used for all statistical analyses. Statistics were calculated using two-way ANOVA with the Bonferroni correction. IC50 values and the half-lie values (t1/2 values) were calculated using Origin software (Origin 6.1; OriginLab Corporation, Northampton, MA, USA). The *P < 0.05 being statistically significant between groups. The heat-map of the qPCR results were obtained according to the methods by Zhou et al. ([41]) and Yin et al. ([42]).

SMMC-7721 = test: Assessment of cell survival (MTT); type: cell-based; details: Homo sapiens, SMMC-7721, 48 h
Protocol: as §1, §2

[3] = Assessment of sorafenib elimination in cultured HCC cells (LC-MS/MS); type: in vitro ADME; details: human, read-out: t1/2 values (converted)
Protocol: (§3) HCC cells were used to examine the rate of elimination of sorafenib ([18], [19], [34], [35]). For cell-based experiments, HCC cells were treated with 1 μmol/L of sorafenib for 12 h. After treatment, the cells were harvested at a series of time-points. For in vivo experimentation, HCC cells were cultured and subcutaneously injected into mice to generate tumors. When tumor volume reached 2000 mm^3, a solution of sorafenib was directly injected into the tumors. After injection, the tumors were excised at a series of time-points. Next, sorafenib was extracted from MHCC97-H cells or tumors using the acetonitrile (ACN). The sustaining amount of sorafenib at each time-point was measured using liquid chromatography–mass spectrometry/mass spectrometry (LC-MS/MS) and the in vitro/in vivo half-life of sorafenib was determined ([18], [19], [34], [35]).
as §2

in vitro = details: human
Protocol: as §3, §2

MHCC97-H cells [4] = test: Nude mouse subcutaneous tumor model; type: in vivo, nude mice
Protocol: All animal experiments were reviewed approved by the Institutional Animal Care and Use Committee, the Fifth Medical Center, Chinese PLA. All animal experiments were performed in accordance with the UK Animals (Scientific Procedures) Act, 1986 and the associated guidelines. Female nude mice were purchased from the Si-Bei-Fu Corporation, Beijing China. Following transfection, MHCC97-H cells were prepared as a single-cell suspension and subcutaneously injected into nude mice ([39], [40]). The mice orally received sorafenib once every two days. Tumors from the mice were harvested, and the volumes and weights were measured ([39], [40]).

in vivo = details: nude, mouse, in vivo, t1/2 of Sorafenib
Protocol: as §3, §2

[5] = system: subcutaneous tumors formed by MHCC97-H cells; test: in vivo
Protocol: as §3, §2

[6] = control miRNA, read-out: IC50 values of the agents on MHCC97-H cells
[7] = miR-4277 + CYP3A4^Mut, read-out: IC50 values of the agents on MHCC97-H cells
[8] = miR-4277 + CYP3A4^Mut-1, read-out: IC50 values of the agents on MHCC97-H cells
[9] = miR-4277 + CYP3A4^Mut-2, read-out: IC50 values of the agents on MHCC97-H cells
[10] = miR-4277, read-out: IC50 values of the agents on MHCC97-H cells
[11] = CYP3A4 mRNA expression High (n = 26)
[12] = CYP3A4 mRNA expression Low (n = 26)

CNC(=O)c1cc(Oc2ccc(NC(=O)Nc3ccc(Cl)c(C(F)(F)F)c3)c(F)c2)ccn1 [Regorafenib]
IC50 (MHCC97-H cells [1]; [6]): 670 ± 490 nM
IC50 (MHCC97-H cells [1]; [7]): 710 ± 280 nM
IC50 (MHCC97-H cells [1]; [8]): 330 ± 320 nM
IC50 (MHCC97-H cells [1]; [9]): 350 ± 90 nM
IC50 (MHCC97-H cells [1]; [10]): 220 ± 40 nM

CNC(=O)c1cc(Oc2ccc(NC(=O)Nc3ccc(Cl)c(C(F)(F)F)c3)cc2)ccn1 [Sorafenib]
OS (overall survival) [2, 11]: 8.0 M
TTP (time to progress) [2, 11]: 9.0 M
OS (overall survival) [2, 12]: 15.0 M
TTP (time to progress) [2, 12]: 11.0 M
IC50 (BEL-7402; BEL-7402, control): 1790 ± 180 nM
IC50 (BEL-7402; BEL-7402, miR-4277): 280 ± 50 nM
IC50 (BEL-7402; BEL-7402, miR-4277 + CYP3A4^Mut): 2880 ± 350 nM
IC50 (SMMC-7721; SMMC-7721, control): 1950 ± 540 nM
IC50 (SMMC-7721; SMMC-7721, miR-4277): 730 ± 330 nM
IC50 (SMMC-7721; SMMC-7721, miR-4277 + CYP3A4^Mut): 1920 ± 550 nM
half-life at 1 μmol/L ([3]; BEL-7402 cells (HCC cell line) with miR-4277 + CYP3A4^Mut, BEL-7402, miR-4277 + CYP3A4^Mut): 1580 ± 227 min
half-life at 1 μmol/L ([3]; BEL-7402 cells (HCC cell line) with miR-4277, BEL-7402, miR-4277): 2540 ± 200 min
half-life at 1 μmol/L ([3]; BEL-7402 cells (HCC cell line), BEL-7402, control): 1690 ± 520 min
half-life at 1 μmol/L ([3]; HepG2 cells (HCC cell line) with miR-4277 + CYP3A4^Mut, HepG2, miR-4277 + CYP3A4^Mut): 1540 ± 268 min
half-life at 1 μmol/L ([3]; HepG2 cells (HCC cell line) with miR-4277, HepG2, miR-4277): 3390 ± 114 min
half-life at 1 μmol/L ([3]; HepG2 cells (HCC cell line), HepG2, control): 1820 ± 199 min
half-life at 1 μmol/L ([3]; SMMC-7721 cells (HCC cell line) with miR-4277 + CYP3A4^Mut, SMMC-7721, miR-4277 + CYP3A4^Mut): 1640 ± 416 min
half-life at 1 μmol/L ([3]; SMMC-7721 cells (HCC cell line) with miR-4277, SMMC-7721, miR-4277): 2780 ± 173 min
half-life at 1 μmol/L ([3]; SMMC-7721 cells (HCC cell line), SMMC-7721, control): 1540 ± 146 min
half-life at 1 μmol/L (in vitro): 1300 ± 80.4 min
half-life at 1 μmol/L (in vitro; MHCC97-H cells (HCC cell line)): 1420 ± 42 min
half-life at 1 μmol/L (in vitro; MHCC97-H cells (HCC cell line) transfected with miR-4277): 2310 ± 598 min
half-life at 1 μmol/L (in vitro; MHCC97-H cells (HCC cell line) with miR-4277 + CYP3A4^Mut): 1190 ± 163 min
half-life at 1 μmol/L (in vitro; MHCC97-H cells (HCC cell line) with miR-4277 + CYP3A4^Mut-1): 1330 ± 395 min
half-life at 1 μmol/L (in vitro; MHCC97-H cells (HCC cell line) with miR-4277 + CYP3A4^Mut-2): 1480 ± 518 min
IC50 (MHCC97-H cells [1]; MHCC97-H cells, control miRNA, read-out: IC50 of Sorafenib): 700 ± 90 nM
IC50 (MHCC97-H cells [1]; MHCC97-H cells, miR-4277 + CYP3A4^Mut, read-out: IC50 of Sorafenib): 920 ± 200 nM
IC50 (MHCC97-H cells [1]; MHCC97-H cells, miR-4277 + CYP3A4^Mut-1, read-out: IC50 of Sorafenib): 220 ± 140 nM
IC50 (MHCC97-H cells [1]; MHCC97-H cells, miR-4277 + CYP3A4^Mut-2, read-out: IC50 of Sorafenib): 350 ± 50 nM
IC50 (MHCC97-H cells [1]; MHCC97-H cells, miR-4277, read-out: IC50 of Sorafenib): 150 ± 10 nM
IC50 (MHCC97-H cells [1]; Solvent control (no CYP3A4 inhibitor), read-out: Sorafenib on MHCC97-H IC50 values): 680 ± 110 nM
subcutaneous growth of MHCC97-H cells (MHCC97-H cells [4]; 0.5 mg/kg dose of sorafenib, oral, control-transfected cells): had no effect
subcutaneous growth of HCC cells (tumor volumes, tumor weights) (MHCC97-H cells [4]; oral sorafenib once every two days, indicated doses, nude mice): inhibited the subcutaneous growth of HCC cells in a dose-dependent manner
half-life (in vivo): 2740 ± 319 min
t1/2 of Sorafenib ([5]; nude, mouse, in vivo): 72.79 ± 7.52 h
t1/2 of Sorafenib ([5]; subcutaneous MHCC97-H tumors, miR-4277 + CYP3A4^Mut-1, sorafenib injected into tumors): 52.38 ± 16.19 h
t1/2 of Sorafenib ([5]; subcutaneous MHCC97-H tumors, miR-4277 + CYP3A4^Mut, sorafenib injected into tumors): 36.67 ± 12.58 h

COc1cc2nccc(Oc3ccc(NC(=O)NC4CC4)c(Cl)c3)c2cc1C(N)=O [Lenvatinib]
IC50 (MHCC97-H cells [1]; [6]): 550 ± 200 nM
IC50 (MHCC97-H cells [1]; [7]): 600 ± 200 nM
IC50 (MHCC97-H cells [1]; [8]): 410 ± 10 nM
IC50 (MHCC97-H cells [1]; [9]): 280 ± 110 nM
IC50 (MHCC97-H cells [1]; [10]): 120 ± 60 nM

N#CC1(c2ccc(NC(=O)c3cccnc3NCc3ccncc3)cc2)CCCC1 [Apatinib]
IC50 (MHCC97-H cells [1]; [6]): 960 ± 330 nM
IC50 (MHCC97-H cells [1]; [7]): 980 ± 370 nM
IC50 (MHCC97-H cells [1]; [8]): 520 ± 270 nM
IC50 (MHCC97-H cells [1]; [9]): 460 ± 300 nM
IC50 (MHCC97-H cells [1]; [10]): 260 ± 70 nM

COc1cc2nccc(Oc3ccc(NC(=O)C4(C(=O)Nc5ccc(F)cc5)CC4)cc3)c2cc1OC [Cabozantinib]
IC50 (MHCC97-H cells [1]; [6]): 510 ± 190 nM
IC50 (MHCC97-H cells [1]; [7]): 560 ± 150 nM
IC50 (MHCC97-H cells [1]; [8]): 250 ± 60 nM
IC50 (MHCC97-H cells [1]; [9]): 300 ± 210 nM
IC50 (MHCC97-H cells [1]; [10]): 100 ± 40 nM

COc1cc2c(Oc3ccc4[nH]c(C)cc4c3F)ccnc2cc1OCC1(N)CC1 [Anlotinib]
IC50 (MHCC97-H cells [1]; [6]): 750 ± 30 nM
IC50 (MHCC97-H cells [1]; [7]): 780 ± 550 nM
IC50 (MHCC97-H cells [1]; [8]): 300 ± 120 nM
IC50 (MHCC97-H cells [1]; [9]): 450 ± 350 nM
IC50 (MHCC97-H cells [1]; [10]): 100 ± 10 nM
